# Laboratory results taken from PMC8947439, “Antimicrobial Properties of a Peptide Derived from the Male Fertility Factor kl2 Protein of Drosophila melanogaster” (Current Issues in Molecular Biology, 2022).
# Residues, ends and D or L forms follow the SMILES beside them.
# Assays:
# E. coli HB101 [1] = type: cell-based, Escherichia coli; settings: HB101, 2 h
# Description: (§1) Bacteria were grown in brain heart infusion (BHI) medium broth at 37 °C. For the microdilution assay (MDA) and minimal inhibitory concentration (MIC) assay, bacteria in the mid-logarithmic phase were harvested and diluted to 4 × 10^5 CFU/mL with Dulbecco’s PBS. Bacteria were incubated with a series of 2-fold dilutions of indicated peptides or PBS for 2 h. The number of viable bacteria were enumerated by counting the colony-forming units (CFU). The MIC was defined as the lowest antimicrobial concentration which prevents the visible growth of bacteria.
# B. subtilis ATCC 9372 = type: cell-based, Bacillus subtilis
# Description: as §1
# S. aureus 8325-4 = experiment: microdilution assay (MDA), viable counts (CFU); type: cell-based, Staphylococcus aureus; settings: peptide 100 μM, 2 h, 4 × 10^5 CFU/mL in Dulbecco's PBS, CFU counting, N = 3
# Description: as §1
# E. coli HB101 [2] = experiment: microdilution assay (MDA), viable counts (CFU); type: cell-based, Escherichia coli; settings: peptide 100 μM, 2 h, 4 × 10^5 CFU/mL in Dulbecco's PBS, CFU counting, N = 3
# Description: as §1
Molecule,MIC (E. coli HB101 [1]),"percent of killing (B. subtilis ATCC 9372; ATCC 9372, 2 h, 100 μM)","antimicrobial activity, inhibition of viable counts (S. aureus 8325-4)","antimicrobial activity, inhibition of viable counts (B. subtilis ATCC 9372; peptide 100 μM, 2 h, 4 × 10^5 CFU/mL in Dulbecco's PBS, CFU counting, N = 3)","antimicrobial activity, inhibition of viable counts (E. coli HB101 [2])"
CC[C@H](C)[C@H](NC(=O)[C@H](CC(C)C)NC(=O)[C@H](C)NC(=O)[C@H](CCCNC(=N)N)NC(=O)[C@H](Cc1ccccc1)NC(=O)[C@H](CC(C)C)NC(=O)[C@H](CCCCN)NC(=O)[C@@H](N)CCCNC(=N)N)C(=O)N[C@@H](CCC(N)=O)C(=O)N[C@@H](C)C(=O)N[C@@H](CS)C(=O)N[C@@H](CC(=O)O)C(=O)N[C@@H](CCCNC(=N)N)C(=O)N[C@@H](CCCCN)C(=O)O [MFF-p1] (H-RKLFRALIQACDRK-OH),6 to 12.5 µM,around 90%,–,–,–
"LKDVFRDFIVVCQK [Z-p1, peptide that is a part of the Zizimin protein of Drosophila melanogaster]",–,–,did not demonstrate antimicrobial activity,did not demonstrate antimicrobial activity,did not demonstrate antimicrobial activity
